Assay results from ChEMBL document CHEMBL1201862, “PubChem BioAssay data set” (2004).
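Compound exposure: 48 hours, 5 concentrations, 96-well plates. GI50 = concentration required for 50% inhibition of growth.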 Active and inactive are the calls of the source. Cut-off read from the data, not from the text of the source: active = GI50 up to about 1.1 µM and inactive = higher.

What was measured:
Test in all cases: inhibition of tumour cell growth, NCI panel, 48 h
HCT-15 = test system: HCT-15
SN12C = test system: SN12C
CCRF-CEM = test system: CCRF-CEM
786-0 = test system: 786-0
ACHN = test system: ACHN
SF-295 = test system: SF-295
A498 = test system: A498
MDA-N = test system: MDA-N
HOP-62 = test system: HOP-62
K562 = test system: K562
NCI/ADR-RES = test system: NCI/ADR-RES
SK-MEL-28 = test system: SK-MEL-28
HT-29 = test system: HT-29
Malme-3M = test system: Malme-3M
LOX IMVI = test system: LOX IMVI
CAKI-1 = test system: CAKI-1
OVCAR-8 = test system: OVCAR-8
RXF 393 = test system: RXF 393
MOLT-4 = test system: MOLT-4
SK-MEL-2 = test system: SK-MEL-2

Row | SMILES | GI50 (HCT-15) [µM] | GI50 (SN12C) | GI50 (CCRF-CEM) | GI50 (786-0) | GI50 (ACHN) | GI50 (SF-295) | GI50 (A498) | GI50 (MDA-N) | GI50 (HOP-62) | GI50 (K562) | GI50 (NCI/ADR-RES) | GI50 (SK-MEL-28) | GI50 (HT-29) | GI50 (Malme-3M) | GI50 (LOX IMVI) | GI50 (CAKI-1) | GI50 (OVCAR-8) | GI50 (RXF 393) | GI50 (MOLT-4) | GI50 (SK-MEL-2)
1 | C=CCN1C(=O)/C(=C/c2ccc(OC)cc2)N=C1SC/C=C/C | 24.2 | 19.5 µM (inactive) | 26.4 µM (inactive) | 34.7 µM (inactive) | 56.4 µM (inactive) | 41.3 µM (inactive) | 23.9 µM (inactive) | 26.7 µM (inactive) | > 100 µM (inactive) | 42.5 µM (inactive) | 39 µM (inactive) | 87.7 µM (inactive) | 33.7 µM (inactive) | 34.8 µM (inactive) | 31.6 µM (inactive) | 84.5 µM (inactive) | 31.8 µM (inactive) | 16.6 µM (inactive) | 20.3 µM (inactive) | 31.5 µM (inactive)
2 | CSc1cc(Cl)c(C)cc1S(=O)(=O)NC(=O)NNc1cccc(C(F)(F)F)n1 | > 100 | > 100 µM (inactive) | > 100 µM (inactive) | > 100 µM (inactive) | > 100 µM (inactive) | > 100 µM (inactive) | > 100 µM (inactive) | > 100 µM (inactive) | > 100 µM (inactive) | > 100 µM (inactive) | > 100 µM (inactive) | > 100 µM (inactive) | > 100 µM (inactive) | > 100 µM (inactive) | > 100 µM (inactive) | > 100 µM (inactive) | > 100 µM (inactive) | > 100 µM (inactive) | 20.9 µM (inactive) | > 100 µM (inactive)
3 | S=C(N/N=C(/c1ccccc1)c1ccccn1)Nc1ccccc1Cl | 0.0179 | 0.168 µM (active) | < 0.01 µM (active) | < 0.018 µM (active) | 0.0153 µM (active) | 0.356 µM (active) | 1.13 µM (inactive) | 0.43 µM (active) | 1.77 µM (inactive) | < 0.215 µM (active) | < 0.01 µM (active) | 1.92 µM (inactive) | < 0.0227 µM (active) | 0.0681 µM (active) | 0.0418 µM (active) | 0.209 µM (active) | 0.0299 µM (active) | 0.124 µM (active) | < 0.01 µM (active) | 0.148 µM (active)
